# Experimental data reported in patent US12364709B2, “Bioavailable poly amines” (AMINEX THERAPEUTICS, INC., priority 2016, dated 2025).
# Key:
# [1] = Pharmacokinetic analysis of AMXT 1501 salt forms, single oral tablet dose; format: in vivo, beagle dogs
# Text: Following dose administration all the animals had serial blood collections. Table 18 provides pharmacokinetic data obtained using the various salt forms of AMXT 1501 following single PO dosing to dogs. In Table 18, Group 1 received the free base form of AMXT 1501, Group 2 received the dicholate salt of AMXT 1501, Group 3 received the phosphate salt form of AMXT 1501, and Group 4 received the dicaprate salt form of AMXT 1501. […] In Table 18, SD refers to standard deviation and CV % refers to coefficient of variability.
# [2] = cited from earlier work
# [3] = cited from earlier work; remark: listed apart in the source
# [4] = 3 h intravenous infusions; cited from earlier work
# [5] = single PO dose 16.0 mg/kg (2 x 80 mg tablets), plasma AMXT 1501
# [6] = single PO dose 16.0 mg/kg (2 x 80 mg tablets), plasma AMXT 1501, 16 mg/kg
# [7] = single PO dose 16.0 mg/kg, plasma AMXT 1501, 16 mg/kg
# [8] = single PO dose 16.0 mg/kg, t=24 hours, plasma AMXT 1501, 16 mg/kg
smiles,measurement,setting,value
CCCCCCCCCCCCCCCC(=O)NCCCC[C@@H](N)C(=O)NCCCNCCCCNCCCN [AMXT 1501 free base],Tmax Median,[1]; [5],6.00 h
same,Tmax Min.,[1]; [5],6.00 h
same,Cmax Max.,[1]; [6],468 ng/mL
same,Cmax Mean,[1]; [6],250 ng/mL
same,Cmax Median,[1]; [6],250 ng/mL
same,Cmax Min.,[1]; [6],31.3 ng/mL
same,Tmax Max.,[1]; [6],12.0 h
same,Tmax Mean,[1]; [6],8.00 h
same,t1/2 Max.,[1]; [7],9.76 h
same,t1/2 Mean,[1]; [7],9.76 h
same,t1/2 Median,[1]; [7],9.76 h
same,t1/2 Min.,[1]; [7],9.76 h
same,AUC0-t Max.,[1]; [8],8450 ng·h/mL
same,AUC0-t Mean,[1]; [8],4710 ng·h/mL
same,AUC0-t Median,[1]; [8],5330 ng·h/mL
same,AUC0-t Min.,[1]; [8],363 ng·h/mL
same,inter-animal consistency of plasma AMXT 1501 levels,"[1]; single oral delivery, FIGS. 5A-5D",variable drug levels
"CCNCCCCNCCCCNCCCCNCC [DEHSpm, N1,N14-diethylhomospermine]",drug in plasma,[2]; 2-4 hrs. post-injection,not observed
same,objective response,[2]; solid tumor patients,None of the 15 patients
c1cc(CN2CCCNCCNCCCNCC2)ccc1CN1CCCNCCNCCCNCC1 [Mozobil],clearance by,"[3]; subcutaneous 40-360 μg/kg, healthy volunteers",≤ 10 h
same,Plasma half-life,[3]; subcutaneous,3 h
N=C(N)NCCCCCCC(=O)NC(O)C(=O)NCCCCNCCCN (stereo not shown) [deoxyspergualin],half-life,[4],1.8 h
